Reference: patent US20140271831A1, “RACECADOTRIL LIQUID COMPOSITIONS” (McNeil-PPC, Inc., priority 2013, published 2014)

Assay: Racecadotril and degradation products over time in Acetate and Citrate at pH 3.6, 4.0, 4.5 (untitled table)
Type: physicochemical
Set-up: key to Impurity C / Impurity G: % peak area relative to the Racecadotril peak
Conditions: Acetate; for RAC: in % (unit assumed)
Experimental: • 1. Pipet 1 mL of Racecadotril solution into a 100 mL volumetric flask (V.F.) • 2. Dilute to volume with the same buffer used in the solution preparation. • 3. […] Parameters may be modified to optimize chromatography. • The assay of Racecadotril is determined by using the external standard injected. The degradation products levels are determined by % peak area relative to the Racecadotril peak. [table] [table] Mobil Phase A: Phosphate buffer, pH 2.5 (Buffer prep: dissolve 1 g of potassium dihydrogen phosphate in water, adjust to pH 2.5 with phosphoric acid, dilute to 1000 mL with water) Mobil Phase B: 100% Acetonitrile

Structure (SMILES): CC(=O)SCC(Cc1ccccc1)C(=O)NCC(=O)OCc1ccccc1 (racemic) [Racecadotril]
- Benz Alcohol (pH 3.6, 1 week): 0.69%
- Impurity C (pH 3.6, 1 week): 0.93
- Impurity G (pH 3.6, 1 week): 1.17
- Thiorphan (pH 3.6, 1 week): 0%
- RAC (pH 3.6, 1 week): 97.21
- Benz Alcohol (pH 3.6, 2 week): 1.4%
- Impurity C (pH 3.6, 2 week): 1.87
- Impurity G (pH 3.6, 2 week): 1.74
- Thiorphan (pH 3.6, 2 week): 0.11%
- RAC (pH 3.6, 2 week): 94.88
- Benz Alcohol (pH 3.6, 3 week): 2.13%
- Impurity C (pH 3.6, 3 week): 2.78
- Impurity G (pH 3.6, 3 week): 1.93
- Thiorphan (pH 3.6, 3 week): 0.14%
- RAC (pH 3.6, 3 week): 93.01
- Benz Alcohol (pH 3.6, 4 week): 2.84%
- Impurity C (pH 3.6, 4 week): 3.56
- Impurity G (pH 3.6, 4 week): 3
- Thiorphan (pH 3.6, 4 week): 0.3%
- RAC (pH 3.6, 4 week): 90.15
- Benz Alcohol (pH 3.6, 6 week): 4.33%
- Impurity C (pH 3.6, 6 week): 5.17
- Impurity G (pH 3.6, 6 week): 3.82
- Thiorphan (pH 3.6, 6 week): 0.57%
- RAC (pH 3.6, 6 week): 85.75
- Benz Alcohol (pH 3.6, 8 week): 5.78%
- Impurity C (pH 3.6, 8 week): 6.2
- Impurity G (pH 3.6, 8 week): 5.28
- Thiorphan (pH 3.6, 8 week): 1%
- RAC (pH 3.6, 8 week): 80.68
- Benz Alcohol (pH 3.6, Initial): 0%
- Impurity C (pH 3.6, Initial): 0
- Impurity G (pH 3.6, Initial): 0.07
- Thiorphan (pH 3.6, Initial): 0%
- RAC (pH 3.6, Initial): 99.93
- Benz Alcohol (pH 4.0, 1 week): 0.7%
- Impurity C (pH 4.0, 1 week): 0.93
- Impurity G (pH 4.0, 1 week): 1.36
- Thiorphan (pH 4.0, 1 week): 0%
- RAC (pH 4.0, 1 week): 97.01
- Benz Alcohol (pH 4.0, 2 week): 1.39%
- Impurity C (pH 4.0, 2 week): 1.82
- Impurity G (pH 4.0, 2 week): 1.7
- Thiorphan (pH 4.0, 2 week): 0.7%
- RAC (pH 4.0, 2 week): 95.02
- Benz Alcohol (pH 4.0, 3 week): 2.09%
- Impurity C (pH 4.0, 3 week): 2.83
- Impurity G (pH 4.0, 3 week): 2.66
- Thiorphan (pH 4.0, 3 week): 0.19%
- RAC (pH 4.0, 3 week): 92.23
- Benz Alcohol (pH 4.0, 4 week): 2.84%
- Impurity C (pH 4.0, 4 week): 3.52
- Impurity G (pH 4.0, 4 week): 3.62
- Thiorphan (pH 4.0, 4 week): 0.38%
- RAC (pH 4.0, 4 week): 89.5
- Benz Alcohol (pH 4.0, 6 week): 4.28%
- Impurity C (pH 4.0, 6 week): 5.16
- Impurity G (pH 4.0, 6 week): 5.67
- Thiorphan (pH 4.0, 6 week): 0.71%
- RAC (pH 4.0, 6 week): 83.98
- Benz Alcohol (pH 4.0, 8 week): 5.37%
- Impurity C (pH 4.0, 8 week): 6.2
- Impurity G (pH 4.0, 8 week): 8.46
- Thiorphan (pH 4.0, 8 week): 1.19%
- RAC (pH 4.0, 8 week): 78.53
- Benz Alcohol (pH 4.0, Initial): 0%
- Impurity C (pH 4.0, Initial): 0
- Impurity G (pH 4.0, Initial): 0
- Thiorphan (pH 4.0, Initial): 0%
- RAC (pH 4.0, Initial): 100
- Benz Alcohol (pH 4.5, 1 week): 0.022%
- Impurity C (pH 4.5, 1 week): 0.21
- Impurity G (pH 4.5, 1 week): 3.17
- Thiorphan (pH 4.5, 1 week): 0.02%
- RAC (pH 4.5, 1 week): 96.33
- Benz Alcohol (pH 4.5, 2 week): 0.4%
- Impurity C (pH 4.5, 2 week): 0.4
- Impurity G (pH 4.5, 2 week): 6.5
- Thiorphan (pH 4.5, 2 week): 0.04%
- RAC (pH 4.5, 2 week): 92.61
- Benz Alcohol (pH 4.5, 3 week): 0.59%
- Impurity C (pH 4.5, 3 week): 0.58
- Impurity G (pH 4.5, 3 week): 9.43
- Thiorphan (pH 4.5, 3 week): 0.06%
- RAC (pH 4.5, 3 week): 89.29
- Benz Alcohol (pH 4.5, 4 week): 0.79%
- Impurity C (pH 4.5, 4 week): 0.72
- Impurity G (pH 4.5, 4 week): 11.84
- Thiorphan (pH 4.5, 4 week): 0.11%
- RAC (pH 4.5, 4 week): 86.5
- Benz Alcohol (pH 4.5, 6 week): 1.14%
- Impurity C (pH 4.5, 6 week): 1.04
- Impurity G (pH 4.5, 6 week): 17.32
- Thiorphan (pH 4.5, 6 week): 0.2%
- RAC (pH 4.5, 6 week): 80.25
- Benz Alcohol (pH 4.5, 8 week): 1.51%
- Impurity C (pH 4.5, 8 week): 1.25
- Impurity G (pH 4.5, 8 week): 21.73
- Thiorphan (pH 4.5, 8 week): 0.36%
- RAC (pH 4.5, 8 week): 75.06
- Benz Alcohol (pH 4.5, Initial): 0.02%
- Impurity C (pH 4.5, Initial): 0.02
- Impurity G (pH 4.5, Initial): 0.21
- Thiorphan (pH 4.5, Initial): 0.01%
- RAC (pH 4.5, Initial): 99.68
